Where two headings read alike, the source gives them in different places.
Molecular target: T1, h P2X3 (Homo sapiens, UniProt P56373)
T1 sequence (P56373 1-397): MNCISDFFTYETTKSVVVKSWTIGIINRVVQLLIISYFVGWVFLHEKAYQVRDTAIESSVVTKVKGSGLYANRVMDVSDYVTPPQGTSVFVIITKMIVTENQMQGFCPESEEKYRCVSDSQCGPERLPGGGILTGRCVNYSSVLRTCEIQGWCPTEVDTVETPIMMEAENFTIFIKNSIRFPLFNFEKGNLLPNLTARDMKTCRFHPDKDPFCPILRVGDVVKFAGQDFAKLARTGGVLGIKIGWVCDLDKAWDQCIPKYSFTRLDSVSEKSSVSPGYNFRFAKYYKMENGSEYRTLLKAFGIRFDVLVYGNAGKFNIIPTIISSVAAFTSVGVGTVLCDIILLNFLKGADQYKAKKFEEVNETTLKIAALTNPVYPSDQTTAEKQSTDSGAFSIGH
Assay: In vitro electrophysiology assay for P2X3 (automated whole-cell patch clamp, α,β-MeATP agonist)
Type: cell-based
Description: In Vitro Electrophysiology Assay for P2X3
Cells expressing P2X3 receptors were grown according to standard practice and maintained at 37° C. in a 5% humidified CO2 atmosphere. The cells were seeded into T175 flask 2 days prior to the day of the assay and dissociated from the flasks using TrypLE when grown to confluence of 80-90%. The dissociated cells were resuspended in serum free media at a cell density of 3×10^6 cells/ml and loaded onto the Sophion Qube automated patch-clamp system. The extracellular assay buffer contained 145 mM NaCl, 4 mM KCl, 2 mM CaCl2, 1 mM MgCl2, 10 mM HEPES, and 10 mM glucose at pH 7.4. The intracellular assay solution contained 140 mM CsF, 10 mM NaCl, 10 mM EGTA, 10 mM HEPES at pH 7.2. Agonist stock solutions were prepared in H2O and diluted in bath solution prior to use. All antagonists were prepared as 10 mM stock solutions in DMSO and diluted in bath solution prior to use. All experiments were performed under the whole-cell patch clamp configuration at room temperature with 384 individual cells being voltage clamped at −60 mV simultaneously on the Sophion Qube instrument. Two baseline responses were established with the application of α,β-MeATP (800 nM), with the subsequent agonist applications being washed out using extracellular assay buffer containing 0.5 U/ml apyrase. Following the second agonist application, antagonist was incubated in the absence of α,β-MeATP for 10 minutes. After antagonist preincubation, 800 nM α,β-MeATP and antagonist were co-administered to determine the inhibitory effect of the antagonist. One concentration of an antagonist was assessed against a single cell, with different concentrations of the antagonist applied to other cells on the 384 recording substrate. The control P2X3 current amplitude was taken from the peak current amplitude from the second agonist response prior to preincubation with antagonist. The peak P2X3 current amplitude in the presence of antagonist was used to calculate the inhibitory effect at each concentration of the antagonist according to the following equation:
Percentage inhibition of P2X3=(P2X3 control peak amplitude−P2X3 antagonist peak amplitude)/P2X3 control peak amplitude)*100
Concentration-response curves were constructed from ten different concentrations with each concentration of antagonist tested on at least two individual cells. The concentration of the antagonist to inhibit P2X3 current by 50% (IC50) was determined by fitting the data with the following equation:
Y=a+[(b−a)/(1+10^((log c−x)d)]
Where ‘a’ is minimum response, ‘b’ is maximum response, ‘c’ is IC50 and ‘d’ is Hill slope.

[1] = Table 2, 800 nM α,β-MeATP, peak current, read-out: h P2X3 (pIC50 range of activity) (converted)

Row | Compound | IC50 [1] | IC50 (comparative example, read-out: activity on receptor P2X3 expressed as pIC50 (converted))
1 | Cc1nc([C@@H](C)Nc2ncnc3c(S(=O)(=O)N4CCC(O)CC4)cc(-c4ccc(F)cc4)cc23)no1 [Example 20, (R)-1-((6-(4-fluorophenyl)-4-((1-(5-methyl-1,2,4-oxadiazol-3-yl)ethyl)amino)quinazolin-8-yl)sulfonyl)piperidin-4-ol] | < 316 nM | –
2 | Cc1ccc(CNc2ncnc3c(OCC(F)F)cc(-c4ccc(F)cn4)cc23)nn1 [Example 4, 8-(2,2-difluoroethoxy)-6-(5-fluoropyridin-2-yl)-N-((6-methylpyridazin-3-yl)methyl)quinazolin-4-amine] | 316 to 3160 nM | –
3 | COC(=O)N1CCC(COc2cc(-c3ccc(F)cc3)cc3c(NCc4ccc(C)nn4)ncnc23)CC1 [Example 64, Methyl 4-[[6-(4-fluorophenyl)-4-[(6-methylpyridazin-3-yl)methylamino]quinazolin-8-yl]oxymethyl]piperidine-1-carboxylate] | 316 to 3160 nM | –
4 | C[C@@H](Nc1ncnc2c(OCC3(O)COC3)cc(-c3ccc(F)cc3)cc12)c1cnc(C(F)(F)F)nc1 [Example 37, (R)-3-(((6-(4-fluorophenyl)-4-((1-(2-(trifluoromethyl)pyrimidin-5-yl)ethyl)amino)quinazolin-8-yl)oxy)methyl)oxetan-3-ol] | < 316 nM | –
5 | Cc1ccc([C@@H](C)Nc2ncnc3c([S+]([O-])C4COC4)cc(-c4ccc(F)cc4)cc23)nn1 (stereo partly drawn) [Example 29, 6-(4-fluorophenyl)-N-((R)-1-(6-methylpyridazin-3-yl)ethyl)-8-(oxetan-3-ylsulfinyl)quinazolin-4-amine] | 3160 to 31600 nM | –
6 | O=C(NC1CCOc2ccc(-c3ccc(F)cc3)cc21)c1cnc(C(F)(F)F)nc1 (stereo not shown) [comparative Example A, N-(6-(4-fluorophenyl)chroman-4-yl)-2-(trifluoromethyl)pyrimidine-5-carboxamide, reference compound] | – | > 31600 nM
7 | C[C@@H](Nc1ncnc2c(S(=O)(=O)N3CCOCC3)cc(-c3ccc(F)cc3)cc12)c1cnc(C(F)(F)F)nc1 [Example 11] | < 316 nM | –
8 | CC(=O)N1CCC(Oc2cc(-c3ccc(F)cc3)cc3c(N[C@H](C)c4cnc(C(F)(F)F)nc4)ncnc23)CC1 [Example 35, (R)-1-(4-((6-(4-fluorophenyl)-4-((1-(2-(trifluoromethyl)pyrimidin-5-yl)ethyl)amino)quinazolin-8-yl)oxy)piperidin-1-yl)ethan-1-one] | 316 to 3160 nM | –
9 | C[C@@H](Nc1ncnc2c(OC3CCN(CC(F)(F)F)C3)cc(-c3ccc(F)cc3)cc12)c1cnc(C(F)(F)F)nc1 (stereo partly drawn) [Example 33, 6-(4-fluorophenyl)-8-((1-(2,2,2-trifluoroethyl)pyrrolidin-3-yl)oxy)-N-((R)-1-(2-(trifluoromethyl)pyrimidin-5-yl)ethyl)quinazolin-4-amine] | 316 to 3160 nM | –
10 | Cc1nnc(C(C)Nc2ncnc3c(S(=O)(=O)N4CCC(F)(F)C4)cc(-c4ccc(F)cc4)cc23)s1 (stereo not shown) [Example 18, 8-((3,3-difluoropyrrolidin-1-yl)sulfonyl)-6-(4-fluorophenyl)-N-(1-(5-methyl-1,3,4-thiadiazol-2-yl)ethyl)quinazolin-4-amine] | 316 to 3160 nM | –
11 | C[C@@H](Nc1ncnc2c(OCc3cc(O)no3)cc(-c3ccc(F)cc3)cc12)c1cnc(C(F)(F)F)nc1 [Example 38, (R)-5-(((6-(4-fluorophenyl)-4-((1-(2-(trifluoromethyl)pyrimidin-5-yl)ethyl)amino)quinazolin-8-yl)oxy)methyl)isoxazol-3-ol] | < 316 nM | –
12 | COC(=O)N1CCCC(COc2cc(-c3ccc(F)cc3)cc3c(NCc4ccc(C)nn4)ncnc23)C1 (stereo not shown) [Example 66, Methyl 3-[6-(4-fluorophenyl)-4-[(6-methylpyridazin-3-yl)methylamino]quinazolin-8-yl]oxymethyl]piperidine-1-carboxylate] | 316 to 3160 nM | –
13 | Cc1nnc(C(C)Nc2ncnc3c(S(=O)(=O)N4CCOCC4)cc(-c4ccc(F)cc4)cc23)s1 (racemic) [Example 12, (Rac)-6-(4-fluorophenyl)-N-(1-(5-methyl-1,3,4-thiadiazol-2-yl)ethyl)-8-(morpholinosulfonyl)quinazolin-4-amine] | < 316 nM | –

Source: patent US20240025880A1 (CHIESI FARMACEUTICI S.P.A., priority 2020, published 2024)
